Assay [1] has as its system Salmonella enterica serovar typhimurium. Put plainly: Broth microdilution assay (MIC). It counts as cell-based. The note with it: BHI broth, 37° C., 24 h, no visible growth. The protocol: From the frozen stock (−80° C.), bacteria were inoculated into brain-hear infusion (BHI) agar (Becton Dickinson, Franklin Lakes, N.J.) and propagated under aerobic conditions at 37° C. for 24 h. After the incubation, one colony of each bacterial strain was transferred to BHI broth (Becton Dickinson, Franklin Lakes, N.J.) and sub-cultured at least twice into BHI before being used in experiments.
The minimal inhibitory concentration (MIC) of CAms were identified using a broth microdilution assay modified from previous studies. Briefly, the stock solutions of CAMs were first prepared by dissolving in double-distilled water (ddH2O) and then diluted in BHI broth at pre-determined concentrations. Further serial 2-fold dilutions were performed in a 96-well microplate (Becton Dickinson, Franklin Lakes, N.J.) with BHI broth. The inoculum concentration was adjusted to 5×10^6 CFU/mL with ultraviolet-visible (UV-vis) spectroscopy at 600 nm. An equal volume (100 μL) of bacterial suspension was added to each microplate well with a final volume of 200 μL. Plates were incubated at 37° C. for 24 h under aerobic conditions. The lowest CAm concentration that yielded no visible growth was recorded as the MIC. Cetyltrimethylammonium bromide (CTAB), a cationic amphiphile, served as a positive control that could mimic the proposed bactericidal mechanism of the newly synthesized tartaric acid-based compounds.
CAms were evaluated against five selected pathogenic microorganisms, including Gram-positive bacteria (i.e., S. aureus and L. monocytogenes) and Gram-negative bacteria (i.e., E. coli, S. typhimurium, and P. aeruginosa), using a turbidity-based microdilution method. MICs were taken as the lowest concentrations that inhibited the visible bacterial growth.

Assay [2] relates to Lactobacillus gasseri ATCC 33323. Put plainly: MIC broth microdilution (Example 3). The format is cell-based. The note with it: planktonic. As for the experimental part:
(§1) G. vaginalis ATCC 14019 strain was grown overnight in Brain Heart Infusion broth (Difco, Sparks, Md.) supplemented with 3% horse serum (sBHI) (JRH Biosciences, KS), while BHI supplemented with 1% glucose (BHIG) was used for biofilm formation assays. Each experiment using G. vaginalis was performed anaerobically (10% hydrogen, 5% carbon dioxide, and 85% nitrogen) within anaerobic glove boxes (Coy Laboratory Products, Inc., Grass Lake, Mich., USA). Three species of vaginal Lactobacillus were used in this study to evaluate the possible harmful effects of CAms on beneficial bacteria: Lactobacillus plantarum ATCC 39268, Lactobacillus rhamnosus 160 (provided by Dr. Aroutcheva, Rush University Medical Center) and Lactobacillus gasseri ATCC 33323; all were grown for 18-24 h in DeMan, Rogosa and Sharpe broth (MRS Difco B D, Franklin Lakes, N.J., USA) under aerobic conditions at 37° C. For lactobacilli biofilm formation, MRS broth supplemented with 1% glucose and 2% sucrose (Fisher Scientific, Waltham, Mass., USA) was utilized.
(§2) To prepare a stock solution, the CAm compounds were dissolved in ddH2O and incubated at 37° C. with shaking at 250 rpm for 10 min. Then, the solution was serially diluted twofold with sBHI broth to determine the MIC and with BHIG broth to identify the MIC-B/MBC-B against planktonic and biofilm cells, respectively.
(§3) According to Clinical and Laboratory Standards Institute (CLSI 2010), the MIC is defined as the lowest concentration of antimicrobial compound producing no visible growth or complete inhibition of bacterial growth during 24 h. To determine MIC values, the broth microdilution assay was performed according to Algburi et al. (Algburi et al., 2015. Path Dis 73(5)) with minor modifications. Briefly, the overnight-grown cells were diluted with their suitable culture medium to approach ˜10^6 CFU/ml. The number of bacterial cells was identified using spot plate method (Turovskiy et al., 2012. Infect Dis Obstet Gynecol 2012:284762). The CAms were serially diluted twofold with sBHI into a non-tissue culture 96-well microplate plate (Falcon, Corning Incorporated, Corning, N.Y., USA) resulting in a final volume of 100 μl for each well. Aliquots of 100 μl of the diluted cell suspension (˜10^6 CFU/ml) were added to each well of a microplate that was treated with different concentrations of CAms. To avoid culture medium evaporation, 75 μl of mineral oil (Sigma-Aldrich, St. Louis, Mo.) was added to each treated well. The microplate was then transferred to the plate reader (Model 550, Bio-Rad Laboratories, Hercules, Calif., USA) and incubated at 37° C. for 24-36 h. The kinetic reading was statistically analyzed, and the MIC and sub-MIC of each CAm compound were determined.
(In broth dilution the organism is exposed to a series of concentrations in liquid medium.)

Assay [3] concerns Lactobacillus plantarum ATCC 39268. The experiment in a line: MIC broth microdilution (Example 3). It counts as cell-based. The note with it: planktonic. As for the experimental part:
as §1, §2, §3

Assay [4] deals with Lactobacillus rhamnosus 160. Put plainly: MIC broth microdilution (Example 3). The format is cell-based. Particulars: planktonic. The protocol:
as §1, §2, §3

Another assay has as its system biofilms of G. vaginalis. Put plainly: Checkerboard assay, biofilm cells. It counts as cell-based, Gardnerella vaginalis. The note with it: for MBC-B of CAm in combination with metronidazole: 24 h. As for the experimental part: For biofilm formation, the overnight culture of G. vaginalis was diluted to approximately 10^7 CFU/ml and 200 μl was transferred into a 96-well tissue culture microplate and incubated anaerobically at 37° C. for 24-36 h. Following biofilm formation and removal of non-adherent cells by washing the biofilm twice with BHIG, each antimicrobial was diluted twofold separately with BHIG broth into two 96-white deep-well microplates. From each dilution of antimicrobial B, 125 μL was added horizontally over 125 μL of antimicrobial A (see FIG. 1 of Algburi et al., 2015. Path Dis 73(5)). From each combination, 200 μL samples were added to the biofilm in sequence, and the microplate was incubated for 24 h at 37° C. under anaerobic conditions. The spot plate method was utilized for counting the number of CFU/ml and evaluating the bactericidal activity (MBC-B) of each antimicrobial combination against biofilm-associated G. vaginalis. Isobolograms were used to analyze the nature of antimicrobial interaction, which is classified as synergistic, antagonistic or additive activity against the planktonic and biofilm cells.
Isobolograms were used to compare the MIC and MBC-B values of each antimicrobial alone with its MIC and MBC-B values in combination with other antimicrobials. The point on the axis (X) refers to MIC or MBC-B values of the first antimicrobial with the coordinates (0, x), and the point on the axis (Y) represents the MIC or MBC-B values of the second antimicrobial with the coordinates (y, 0) when they used alone. The two MIC or MBCs-B values are connected by a dashed line (Turovskiy Y, Chikindas M L. 2011 Probiotics Antimicrob Proteins 3:144-149). The MICs or MBCs-B of each antimicrobial combination are plotted as dots on the graph. Results are expressed according to the locations of these dots from the line that connects MICs or MBCs-B of the first and second antimicrobials. When MICs or MBCs-B values are located under the line, the two combining antimicrobials are synergized, but antagonized against the tested microorganism when these dots of interaction are above. An additive effect is observed when these dots are located on the line.

On to `CCCCCCCCCC(=O)OC(C(=O)NCCN)C(OC(=O)CCCCCCCCC)C(=O)NCCN.Cl.Cl` (stereo not drawn) [8b], for which the “MIC S. typhimurium (G−)” value in assay [1] was found to be 3.9 µg/mL. In addition, in assay [2], the “MIC L. gasseri” value is 12.7 µM. Further, the “MIC L. plantarum” value in assay [3] worked out at 33.3 µM. In assay [4], the “MIC L. rhamnosus” value stood at 12.7 µM. For the same compound, in the assay on biofilms of G. vaginalis, the “MBC-B of CAm when used alone” value came to 67.7 µM and the “MBC-B of CAm in combination with metronidazole” value (shortened to “MBC-B of CAm in combination”) amounted to 6.3 µM.

`CCCCCCCC(=O)OC(C(=O)NCCN)C(OC(=O)CCCCCCC)C(=O)NCCN.Cl.Cl` (stereo not drawn) [8a]: the “MIC S. typhimurium (G−)” value in assay [1] is 62.5 µg/mL. Further, the “MIC L. gasseri” value in assay [2] came out at 55.9 µM. Moreover, in assay [3], the “MIC L. plantarum” value came out at 223 µM. For the same compound, in assay [4], the “MIC L. rhamnosus” value stood at 111.6 µM. Moreover, in the assay on biofilms of G. vaginalis, the “MBC-B of CAm when used alone” value worked out at 92.7 µM and the “MBC-B of CAm in combination” value was 26.9 µM.

Regarding `CCCCCCCCCCOC(C(=O)NCCN)C(OCCCCCCCCCC)C(=O)NCCN.Cl.Cl` (stereo not drawn) [5b], in assay [1], the “MIC S. typhimurium (G−)” value turned out to be 3.9 µg/mL. Further, the “MIC L. gasseri” value in assay [2] was 4.4 µM. In addition, the “MIC L. plantarum” value in assay [3] was 25.7 µM. Also, the “MIC L. rhamnosus” value in assay [4] is 13.3 µM. In the assay with biofilms of G. vaginalis, the “MBC-B of CAm when used alone” value was 340 µM and the “MBC-B of CAm in combination” value was 25.7 µM.
